28 molecules from ChEMBL document CHEMBL5096206, “From natural products to HDAC inhibitors: An overview of drug discovery and design strategy” (Bioorg Med Chem, 2021) can be followed below.

In brackets after ≈: the same amount, converted by molar mass.

Series [1] addresses T1, Histone deacetylase 4 (Homo sapiens, UniProt P56524). The experiment in a line: Inhibition of HDAC4 in human HeLa cells incubated for 1 hr by mass spectrometry method. The class given is cell-based.
Series [2] has as its target T2, Histone deacetylase 1 (Homo sapiens, UniProt Q13547). The series is described as follows: Inhibition of recombinant HDAC1 (unknown origin) using AMC-K(Ac)GL as substrate by fluorescence based analysis.
The subject of another series is HT-29. The series is described as follows: Inhibition of colony formation in human HT-29 cells at 0.5 to 5 uM measured after 10 days by methylene blue staining based analysis relative to control. The class given is functional. The following applies: dose 0.5-5 µM, time 10 day.
The target in series [3] is T3, Protein deacetylase HDAC6 (Homo sapiens, UniProt Q9UBN7). The series is described as follows: Inhibition of recombinant HDAC6 (unknown origin) using AMC-K(Ac)GL as substrate by fluorescence based analysis.
A short description of series [4]: Inhibition of HDAC in Sprague-Dawley rat hepatocytes using Fluor de Lys as substrate incubated for 15 mins by fluorometric assay. Type of series: cell-based. The following applies: Hepatocyte, 0.25 h.
Series [5] relates to HepG2. The experiment in a line: cells. The following applies: Homo sapiens, HepG2, 72 h.
Description: Antiproliferative activity against human HepG2 cells assessed as cell growth inhibition measured after 72 hrs by MTT assay
Series [6] has as its system MCF7. The experiment in a line: cells. The note with it: Homo sapiens, MCF7, 72 h.
Description: Antiproliferative activity against human MCF7 cells assessed as cell growth inhibition measured after 72 hrs by MTT assay
For another series, the system named is Huh-7. The experiment in a line: Antiproliferative activity against human Huh-7 cells assessed as cell growth inhibition. Type of series: functional, cell-based.
The next series concerns HA22T cell line. The series is described as follows: Antiproliferative activity against human HA22T cell line assessed as cell growth inhibition. Type of series: functional, cell-based.
The subject of another series is MCF10. The series is described as follows: Antiproliferative activity against human MCF10 cells assessed as cell growth inhibition. Type of series: functional, cell-based.
Series [7] has as its system MCF7. The experiment in a line: cells. The note with it: Homo sapiens.
A further series deals with Hep 3B2. The experiment in a line: Antiproliferative activity against human Hep3B cells assessed as cell growth inhibition. The class given is functional, cell-based.
Another series concerns AGS. The experiment in a line: Antiproliferative activity against human AGS cells assessed as cell growth inhibition. The class given is functional, cell-based.
The nature of series [8]: Cytotoxicity against human CCD-18Co assessed as cell growth inhibition. The class given is toxicity, cell-based. The following applies: CCD-18Co cells.
Series [9] has as its system HepG2. The series is described as follows: Antiproliferative activity against human HepG2 cells assessed as cell growth inhibition. Type of series: functional, cell-based.
Series [10] concerns the target T4, Histone deacetylase 2 (Homo sapiens, UniProt Q92769). The series is described as follows: Inhibition of HDAC2 in human MCF7 cells using TMB as substrate incubated for 2 hrs by ELISA analysis. The class given is cell-based. Background: An ELISA detects its analyte on a solid surface through an enzyme-linked reagent.
Series [11] deals with T2, Histone deacetylase 1. The series is described as follows: Inhibition of HDAC1 in human MCF7 cells using TMB as substrate incubated for 2 hrs by ELISA analysis. Type of series: cell-based.
The target of a further series is Tubulin beta. The series is described as follows: Inhibition of beta-tubulin polymerization in human MCF7 cells using TMB as substrate incubated for 2 hrs by spectrophotometry analysis. Type of series: cell-based.
The next series has as its system P388. The series is described as follows: Cytotoxicity against mouse P388 cells assessed as cell growth inhibition. The class given is functional, cell-based.
In series [12] the test system is T47D. The series is described as follows: Antiproliferative activity against human T47D cells assessed as cell growth inhibition. Type of series: functional, cell-based.
Series [13] deals with T2, Histone deacetylase 1. The series is described as follows: Inhibition of human recombinant His-tagged HDAC1 expressed in baculovirus expression system incubated for 2 hrs by fluorescence based analysis.
In the next series the target is Histone deacetylase 8 (Homo sapiens, UniProt Q9BY41). The experiment in a line: Inhibition of human recombinant His-tagged HDAC8 expressed in Escherichia coli incubated for 2 hrs by fluorescence based analysis.
In a further series the test system is MDA-MB-231. The series is described as follows: Antiproliferative activity against human MDA-MB-231 cells assessed as cell growth inhibition. The class given is functional, cell-based.
A further series concerns the target Histone deacetylase 3 (Homo sapiens, UniProt O15379). The experiment in a line: Inhibition of human recombinant His-tagged HDAC3 expressed in baculovirus expression system incubated for 2 hrs by fluorescence based analysis.
In another series the test system is BT-20. The experiment in a line: Antiproliferative activity against human BT-20 cells assessed as cell growth inhibition. The class given is functional, cell-based.
The target in series [14] is T4, Histone deacetylase 2. The experiment in a line: Inhibition of human recombinant full-length His-tagged HDAC2 expressed in baculovirus expression system incubated for 2 hrs by fluorescence based analysis.
Series [15] relates to MCF7. The series is described as follows: cells. The following applies: Homo sapiens. The source holds these as a separate data set.
Description: Antiproliferative activity against human MCF7 cells assessed as cell growth inhibition by SRB assay
Series [16] deals with T47D. The experiment in a line: Antiproliferative activity against human T47D cells assessed as cell growth inhibition by burton method. Type of series: functional, cell-based.
For the next series, the system named is BT-474. The series is described as follows: Antiproliferative activity against human BT-474 cells assessed as cell growth inhibition by SRB assay. Type of series: functional, cell-based.
Series [17] in a line: Half life in mouse. The class given is ADME, organism-based. The note with it: in vivo.
Series [18] deals with T1, Histone deacetylase 4. The series is described as follows: Inhibition of HDAC4 (unknown origin).
The target in series [19] is T2, Histone deacetylase 1. The experiment in a line: Inhibition of HDAC1 (unknown origin).
The target in series [20] is T3, Protein deacetylase HDAC6. The experiment in a line: Inhibition of HDAC6 (unknown origin).
Another series deals with Histone deacetylase 5 (Homo sapiens, UniProt Q9UQL6). The experiment in a line: Inhibition of HDAC5 (unknown origin).

T1 sequence (P56524 whole entry): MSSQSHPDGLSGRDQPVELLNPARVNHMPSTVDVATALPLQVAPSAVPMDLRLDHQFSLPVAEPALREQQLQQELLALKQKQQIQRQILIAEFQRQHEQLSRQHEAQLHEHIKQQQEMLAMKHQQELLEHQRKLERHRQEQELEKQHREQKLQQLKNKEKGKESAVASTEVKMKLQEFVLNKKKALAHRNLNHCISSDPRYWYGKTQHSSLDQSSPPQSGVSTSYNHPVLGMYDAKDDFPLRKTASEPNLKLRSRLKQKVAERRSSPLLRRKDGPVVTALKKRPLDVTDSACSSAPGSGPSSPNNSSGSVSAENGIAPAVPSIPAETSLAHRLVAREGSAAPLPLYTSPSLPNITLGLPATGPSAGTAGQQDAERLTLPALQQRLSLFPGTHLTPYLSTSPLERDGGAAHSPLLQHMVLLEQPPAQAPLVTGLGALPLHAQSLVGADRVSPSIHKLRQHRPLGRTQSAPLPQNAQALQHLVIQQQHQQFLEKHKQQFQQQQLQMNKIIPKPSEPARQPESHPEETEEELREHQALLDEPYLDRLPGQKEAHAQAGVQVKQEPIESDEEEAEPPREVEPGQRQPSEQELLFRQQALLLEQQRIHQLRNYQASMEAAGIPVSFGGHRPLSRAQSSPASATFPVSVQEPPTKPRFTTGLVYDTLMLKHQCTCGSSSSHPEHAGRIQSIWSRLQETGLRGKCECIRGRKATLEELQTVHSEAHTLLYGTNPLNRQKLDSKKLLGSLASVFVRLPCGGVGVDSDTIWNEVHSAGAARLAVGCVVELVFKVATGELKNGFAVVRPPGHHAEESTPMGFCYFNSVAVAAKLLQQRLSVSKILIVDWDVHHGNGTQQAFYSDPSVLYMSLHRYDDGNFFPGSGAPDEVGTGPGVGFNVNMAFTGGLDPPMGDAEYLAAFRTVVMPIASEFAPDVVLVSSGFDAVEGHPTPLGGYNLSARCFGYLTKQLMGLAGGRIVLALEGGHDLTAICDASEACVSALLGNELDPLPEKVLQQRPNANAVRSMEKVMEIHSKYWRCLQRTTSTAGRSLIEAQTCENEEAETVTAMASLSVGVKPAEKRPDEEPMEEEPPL
T2 sequence (Q13547 whole entry): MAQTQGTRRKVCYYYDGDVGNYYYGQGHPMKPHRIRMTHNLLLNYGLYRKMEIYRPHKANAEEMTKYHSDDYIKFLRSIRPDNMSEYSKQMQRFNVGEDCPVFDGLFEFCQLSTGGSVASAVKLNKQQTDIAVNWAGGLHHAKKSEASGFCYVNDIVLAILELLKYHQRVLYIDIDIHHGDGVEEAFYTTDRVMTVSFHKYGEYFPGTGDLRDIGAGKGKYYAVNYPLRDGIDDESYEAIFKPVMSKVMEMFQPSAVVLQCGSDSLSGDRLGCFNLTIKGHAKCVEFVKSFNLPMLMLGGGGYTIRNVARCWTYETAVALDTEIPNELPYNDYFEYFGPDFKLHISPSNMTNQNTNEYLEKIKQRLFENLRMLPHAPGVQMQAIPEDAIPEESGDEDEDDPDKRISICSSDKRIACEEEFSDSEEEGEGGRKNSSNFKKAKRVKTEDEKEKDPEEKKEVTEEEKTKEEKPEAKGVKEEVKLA
T3 sequence (Q9UBN7 whole entry): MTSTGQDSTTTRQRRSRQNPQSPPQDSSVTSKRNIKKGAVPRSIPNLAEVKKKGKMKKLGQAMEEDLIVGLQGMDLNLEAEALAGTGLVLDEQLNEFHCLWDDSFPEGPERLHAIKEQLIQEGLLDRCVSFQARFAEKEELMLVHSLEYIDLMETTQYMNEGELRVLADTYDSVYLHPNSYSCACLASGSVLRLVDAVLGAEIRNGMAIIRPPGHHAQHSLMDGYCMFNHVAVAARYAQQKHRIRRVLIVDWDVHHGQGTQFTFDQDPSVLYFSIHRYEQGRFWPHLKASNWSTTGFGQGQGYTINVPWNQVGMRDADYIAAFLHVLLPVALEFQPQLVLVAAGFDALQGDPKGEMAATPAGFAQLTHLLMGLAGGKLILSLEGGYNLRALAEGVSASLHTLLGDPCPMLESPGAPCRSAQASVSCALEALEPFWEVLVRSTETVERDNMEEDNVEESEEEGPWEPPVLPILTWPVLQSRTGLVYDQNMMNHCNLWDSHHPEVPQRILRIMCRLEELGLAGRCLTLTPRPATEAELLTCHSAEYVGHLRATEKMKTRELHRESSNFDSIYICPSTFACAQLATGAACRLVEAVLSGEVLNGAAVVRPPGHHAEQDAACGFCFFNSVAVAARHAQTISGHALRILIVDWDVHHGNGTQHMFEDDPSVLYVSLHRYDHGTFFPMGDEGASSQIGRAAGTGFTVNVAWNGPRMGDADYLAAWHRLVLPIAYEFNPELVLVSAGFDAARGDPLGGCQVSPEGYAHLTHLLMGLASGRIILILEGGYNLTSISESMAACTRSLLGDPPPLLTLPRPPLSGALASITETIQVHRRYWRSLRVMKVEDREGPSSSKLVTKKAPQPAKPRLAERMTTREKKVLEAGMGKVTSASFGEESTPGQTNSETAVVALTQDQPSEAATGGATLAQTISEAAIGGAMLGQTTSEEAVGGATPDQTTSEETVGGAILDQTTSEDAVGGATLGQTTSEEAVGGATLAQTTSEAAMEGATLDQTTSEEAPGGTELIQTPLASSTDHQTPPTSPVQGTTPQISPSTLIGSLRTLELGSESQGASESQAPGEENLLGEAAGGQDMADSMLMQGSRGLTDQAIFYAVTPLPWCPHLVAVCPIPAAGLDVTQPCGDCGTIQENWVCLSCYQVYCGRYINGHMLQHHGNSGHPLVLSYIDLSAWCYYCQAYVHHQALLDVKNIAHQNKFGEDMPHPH
T4 sequence (Q92769 whole entry): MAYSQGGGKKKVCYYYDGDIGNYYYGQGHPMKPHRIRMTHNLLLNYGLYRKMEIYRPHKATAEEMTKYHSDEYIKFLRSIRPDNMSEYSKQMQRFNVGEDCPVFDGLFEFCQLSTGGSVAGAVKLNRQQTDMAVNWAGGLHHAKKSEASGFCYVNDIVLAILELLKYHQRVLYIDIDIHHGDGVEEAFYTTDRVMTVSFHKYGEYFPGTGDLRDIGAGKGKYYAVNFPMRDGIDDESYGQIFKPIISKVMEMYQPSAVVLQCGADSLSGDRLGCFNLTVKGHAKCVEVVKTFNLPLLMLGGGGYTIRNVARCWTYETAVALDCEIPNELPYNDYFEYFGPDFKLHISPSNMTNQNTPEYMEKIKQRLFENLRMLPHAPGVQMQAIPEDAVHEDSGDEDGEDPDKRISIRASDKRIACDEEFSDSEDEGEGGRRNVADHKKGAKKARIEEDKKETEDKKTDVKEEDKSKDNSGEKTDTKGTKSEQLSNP
Histone deacetylase 8, sequence (Q9BY41 whole entry): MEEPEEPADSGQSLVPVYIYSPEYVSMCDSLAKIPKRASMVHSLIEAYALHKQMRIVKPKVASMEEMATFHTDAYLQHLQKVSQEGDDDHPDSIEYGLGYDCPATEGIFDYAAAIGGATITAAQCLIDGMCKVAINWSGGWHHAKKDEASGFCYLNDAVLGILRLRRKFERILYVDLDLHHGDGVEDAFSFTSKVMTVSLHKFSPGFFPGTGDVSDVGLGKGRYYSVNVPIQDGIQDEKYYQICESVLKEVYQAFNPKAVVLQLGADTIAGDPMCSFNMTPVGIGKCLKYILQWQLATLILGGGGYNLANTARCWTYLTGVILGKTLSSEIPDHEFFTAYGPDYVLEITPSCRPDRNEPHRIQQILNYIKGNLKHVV
Histone deacetylase 3, sequence (O15379 whole entry): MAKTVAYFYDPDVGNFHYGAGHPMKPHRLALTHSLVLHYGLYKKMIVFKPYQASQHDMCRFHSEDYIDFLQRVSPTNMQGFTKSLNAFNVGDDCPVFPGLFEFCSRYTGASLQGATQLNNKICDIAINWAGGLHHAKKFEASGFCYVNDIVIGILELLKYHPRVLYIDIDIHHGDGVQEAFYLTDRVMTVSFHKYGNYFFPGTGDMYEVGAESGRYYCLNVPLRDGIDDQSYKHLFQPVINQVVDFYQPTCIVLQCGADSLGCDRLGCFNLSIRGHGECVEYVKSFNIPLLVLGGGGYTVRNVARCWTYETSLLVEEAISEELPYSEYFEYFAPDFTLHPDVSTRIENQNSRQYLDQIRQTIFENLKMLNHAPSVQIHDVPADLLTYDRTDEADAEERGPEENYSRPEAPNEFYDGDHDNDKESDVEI

As usually defined, the IC50 is the concentration needed to halve the response being measured. Molecule `C[C@@H](O)C(=O)CCCCC[C@@H]1NC(=O)[C@H]2CCCN2C(=O)[C@H](Cc2ccccc2)NC(=O)[C@H](Cc2ccccc2)NC1=O` had an IC50 on Histone deacetylase 4 [1] of 0.28 µM.

With `CC(C)(C)OC(=O)Nc1cccc(C(=O)/C=C/c2ccc(/C=C/C(=O)NO)cc2)c1`, the IC50 came out at 2.9 µM on Histone deacetylase 1 [2] and 0.01 µM in series [3]. In addition, in the series with HT-29, the “inhibition (INH)” value is recorded as “<=60%”.

Consider `CN(C)c1ccc(C(=O)NCCCCCC(=O)NO)cc1`, for which, in series [4], the concentration for half-maximal inhibition (IC50) is 0.024 µM.

For the molecule `CC[C@]1(C)NC(=O)[C@H](CCCCCC(=O)[C@@H](C)O)NC(=O)[C@H]2CC(C)(C)CN2C(=O)[C@H](Cc2ccccc2)NC1=O`, the midpoint of inhibition at Histone deacetylase 4 [1], the IC50, lay at 0.09 µM.

On Histone deacetylase 4 [1], `CC[C@]1(C)NC(=O)[C@H](CCCCCC(=O)[C@@H](C)O)NC(=O)[C@H]2CCCN2C(=O)[C@H](Cc2ccccc2)NC1=O` had an IC50 of 0.05 µM.

The molecule `C[C@H](O)C(=O)CCCCC[C@@H]1NC(=O)[C@H]2CCCN2C(=O)[C@H](Cc2ccccc2)NC(=O)C(C)(C)NC1=O` yielded an IC50 at Histone deacetylase 4 [1] of 0.33 µM.

The molecule `C[C@@H](O)C(=O)CCCCC[C@@H]1NC(=O)[C@H]2CCCN2C(=O)[C@H](Cc2ccccc2)NC(=O)C(C)(C)NC1=O` had an IC50 against Histone deacetylase 4 [1] of 0.03 µM.

`CC[C@@H]1NC(=O)[C@H](CCCCCC(=O)[C@H](C)O)NC(=O)[C@H]2CCCN2C(=O)[C@H](Cc2ccccc2)NC1=O` registered an IC50 on Histone deacetylase 4 [1] of 1 µM.

Regarding `O=C(/C=C/c1ccc([N+](=O)[O-])cc1)c1ccc(NC(=O)c2ccc(CN3C(=O)c4ccccc4C3=O)cc2)cc1`, the figures for the IC50 in the series on HepG2 [5] and in the series with MCF7 [6] were 15.8 µM and 9.78 µM, respectively.

In the case of `CCC(=O)CCCCC[C@@H]1NC(=O)[C@H]2CCCCN2C(=O)[C@H]([C@@H](C)CC)NC(=O)[C@H](Cc2cc3ccccc3n2OC)NC1=O`, the IC50 in the series on Huh-7, with HA22T cell line, in the series with MCF10, in the series on MCF7 [7], in the series with Hep 3B2 and in the series on AGS was 0.19 µM each time. Besides, the IC50 (in series [8]; in the series with HepG2 [9]) was 0.19 µM each time.

Regarding `Cc1c[nH]c([C@@H]2NC(=O)[C@H](CCCCCC(=O)[C@H](C)O)NC(=O)[C@H]3CCCN3C(=O)[C@H](Cc3ccccc3)NC2=O)n1`, at Histone deacetylase 4 [1], half-maximal inhibition (IC50) was put at 350 µM.

Take `COc1ccc(/C=C/C(=O)c2ccc(NC(=O)c3ccc(CN4C(=O)c5ccccc5C4=O)cc3)cc2)cc1`: the IC50 amounted to 1.87 µM in the series on HepG2 [5] and 2.41 µM in the series on MCF7 [6].

With `COc1ccc(/C=C/C(=O)c2ccc(NC(=O)c3ccc(CN4C(=O)c5ccccc5C4=O)cc3)cc2)c(OC)c1`, the values for the IC50 with HepG2 [5] and in the series on MCF7 [6] were 1.75 µM and 2.09 µM, respectively.

Turning to `O=C(/C=C/c1ccc(Cl)cc1)c1ccc(NC(=O)c2ccc(CN3C(=O)c4ccccc4C3=O)cc2)cc1`, the values for the IC50 in the series with HepG2 [5] and in the series with MCF7 [6] were 3.21 µM and 4.11 µM, respectively.

Take `O=C(/C=C/c1ccccc1)c1ccc(NC(=O)c2ccc(CN3C(=O)c4ccccc4C3=O)cc2)cc1`: the IC50 with HepG2 [5] amounted to 12.9 µM; with MCF7 [6], 14.4 µM.

In the case of `O=C(/C=C/c1cc2ccc1CCc1ccc(cc1)CC2)c1ccc(NC(=O)c2ccc(CN3C(=O)c4ccccc4C3=O)cc2)cc1`, the IC50 with HepG2 [5] worked out at 8.47 µM; in the series with MCF7 [6], 5.28 µM.

Consider `O=C(/C=C/c1cccc2ccccc12)c1ccc(NC(=O)c2ccc(CN3C(=O)c4ccccc4C3=O)cc2)cc1`, for which the IC50 with HepG2 [5] was 8.07 µM; with MCF7 [6], 11.3 µM.

For `Cc1cc(/C=C/C(=O)c2ccc(NC(=O)c3ccc(CN4C(=O)c5ccccc5C4=O)cc3)cc2)cc(C)c1C`, the half-inhibitory concentration (IC50) at Histone deacetylase 2 [10] came to 0.43 µM; against Histone deacetylase 1 [11], 0.22 µM; with HepG2 [5] it was 1.62 µM; in the series with MCF7 [6], 1.88 µM; on Tubulin beta, 2.32 µM.

As for `O=C(/C=C/C1Oc2ccccc2O1)c1ccc(NC(=O)c2ccc(CN3C(=O)c4ccccc4C3=O)cc2)cc1`, the IC50 in the series on HepG2 [5] was determined as 1.96 µM; in the series with MCF7 [6], 3.45 µM.

With `O=C(/C=C/c1ccccc1-c1ccco1)c1ccc(NC(=O)c2ccc(CN3C(=O)c4ccccc4C3=O)cc2)cc1`, the IC50 with HepG2 [5] was found to be 9.05 µM; in the series with MCF7 [6], 5.44 µM.

Consider `C[C@H](O)C(=O)CCCCC[C@@H]1NC(=O)[C@H]2CCCN2C(=O)[C@H](Cc2ccccc2)NC(=O)C(C2CCCCC2)(C2CCCCC2)NC1=O`, for which, at Histone deacetylase 4 [1], half-maximal inhibition (IC50) was put at 0.67 µM.

As for `C[C@@H](O)C(=O)CCCCC[C@@H]1NC(=O)[C@H]2CCCN2C(=O)[C@H](Cc2ccccc2)NC(=O)[C@H](n2ccc3ccccc32)NC1=O`, the IC50 against Histone deacetylase 4 [1] amounted to 0.02 µM.

The molecule `O=C(CCCCCNC(=O)c1cc2ccccc2[nH]1)NO` displayed an IC50 in series [4] of 0.014 µM.

On to `COc1ccc(/C=C\c2cc(OC)c(OC)c(OC)c2)cc1O` [COMBRETASTATIN A4], for which half-maximal inhibition in the series with MCF7 [6] (IC50) was put at 4.85 µM.

For `O=C(NCCSSCCNC(=O)/C(Cc1ccc(O)c(Br)c1)=N/O)/C(Cc1ccc(O)c(Br)c1)=N/O` [PSAMMAPLIN A], the IC50 in the series on P388 stood at 0.3 µg/mL (≈ 0.452 µM).

In the case of `CCCC(=O)[O-].[Na+]` [SODIUM BUTYRATE], the IC50 in the series with T47D [12] stood at 700 µM; in the series with MCF7 [7], 500 µM; on Histone deacetylase 1 [13], 16 µM; on Histone deacetylase 8, 15 µM; in the series on MDA-MB-231 it was 600 µM; at Histone deacetylase 3, 9 µM. The values for the IC50 in the series on BT-20 and at Histone deacetylase 2 [14] were 1400 µM and 12 µM, respectively.

Turning to `CC(/C=C/C(=O)NO)=C\[C@@H](C)C(=O)c1ccc(N(C)C)cc1` [TRICHOSTATIN], the IC50 was 0.0277 µM in the series with MCF7 [15], 0.0264 µM with T47D [16] and 0.0333 µM in the series with BT-474.

Consider `CCCC(CCC)C(=O)O` [VALPROIC ACID], for which the IC50 in the series with MCF7 [7] came to 230 µM; at Histone deacetylase 4 [18] it was 1000 µM; against Histone deacetylase 1 [19], 400 µM; in series [20] it was 1000 µM; against Histone deacetylase 5, 1000 µM. This molecule also came in with a t1/2 in [17] of 7 h.
